{"source": "patent US20240415828A1", "about": "“TLR7 AGONIST AND COMBINATIONS FOR CANCER TREATMENT” (BIONTECH SE, priority 2021, published 2024)", "key": {"BALB/c mice": {"test_system": "BALB/c mice", "experiment": "In vivo cytokine release in BALB/c mice (IFNa ELISA)", "parameters": "species or system mouse", "conditions": "3 mg/kg retro-orbital vs 5, 10, 15 mg/kg; blood 1 h after application", "protocol": "FIG. 2. In vivo cytokine release in BALB/c mice upon administration of BNT411. Female BALB/c mice were retro-orbitally administered with doses of 3, 5, 10, and 15 mg/kg BNT411. Blood samples were drawn 1 h after compound application and analyzed with mouse IFNa ELISA.\nSerum levels of IFNα were measured by sandwich ELISA (Pbl Assay Systems) according to manufacturer's instructions.\nFemale BALB/c mice were retro-orbitally administered with doses of 3, 5, 10, and 15 mg/kg BNT411. Blood samples were drawn 1 h after compound application and analyzed with mouse IFNa ELISA."}, "solid tumor": {"test_system": "solid tumor", "experiment": "Clinical trial Part 1A, BNT411 monotherapy dose escalation", "type": "in vivo, human", "protocol": "FIG. 8. Release of certain cytokines from preparations obtained from whole blood of human patients treated with BNT411 at various dose levels. Mean maximum fold change (+SD) calculated from the highest cytokine value observed on day 1 in treatment cycle 1 relative to baseline. IFNα and IL-6 peaked 4 to 8 hours after treatment, IP-10 and TNFa peaked 2.5 to 8 hours after treatment.\nTo this end, a trial was designed to assess the safety profile of BNT411 in monotherapy and in combination with atezolizumab, etoposide, and carboplatin (atezo/EC) and to determine the maximum tolerated dose/recommended phase 2 dose (MTD/RP2D). This trial comprised two parts (1A and 1B) with dose escalation, wherein the patients of part 1A received BNT411 monotherapy and patients of part 1B received BNT411 together with atezolizumab, etoposide, and carboplatin. The patients had solid tumor (preferably ES-SCLC for part 1B) and received the drugs according to the following dosing schedule (until disease progression, unacceptable toxicity, or death): • Part 1A: 3-week cycles, BNT411 i.v. Q1W for 4 cycles, then Q3W • Part 1B: 3-week cycles, BNT411 i.v. Q1W for 4 cycles, then Q3W; atezo/EC Q3W\nDL1-DL3 of Part 1A were single-patient cohorts, all other dose levels were 3+3 cohorts.\nEfficacy was assessed by CT/MRI imaging according to RECIST 1.1 and iRECIST every 6 weeks for 48 weeks, and every 12 weeks thereafter. Safety was assessed by physical examination, vital signs, electrocardiogram, clinical laboratory assessments, eye examinations, ECOG, pregnancy testing, and ECHO/MUGA. Biomarker assessments included tumor biopsies and blood sampling for cytokine analysis, immune phenotyping, tumor mutational burden, and TCR profiling.\nAs of Aug. 26, 2021, the patients were located in seven trial centers (UK, USA, Spain, Germany). Twenty-five patients were screened (Part 1A: 22; Part 1B: 3) with seven screen failures (all Part 1A). Eighteen patients enrolled (Part 1A: 15; Part 1B: 3), wherein fifteen patients were evaluable (Part 1A: 12; Part 1B: 3). Two Part 1A patients were replaced (at DL1 due to incorrect dosing and at DL5 due to PD before DLT evaluation completed). One Part 1A patient dropped out of trial before receiving treatment.\nThe trial population consists of histologically confirmed solid tumor patients with metastatic or unresectable disease for which there is no available standard therapy likely to confer clinical benefit, or patients who are not candidates for such available therapy."}, "[1]": {"conditions": "Part 1A, patients (%), as of Aug. 26, 2021"}, "[2]": {"conditions": "Part 1A, patients, as of Aug. 26, 2021"}}}
{"smiles": "COCCc1nc2c(N)nc3ccccc3c2n1CCCCN(C(C)=O)C1CCOCC1", "note": "[BNT411]", "values": [{"measurement": "IFNa secretion", "setting": "BALB/c mice", "value": "stronger IFNa secretion as compared to higher BNT411 doses"}, {"measurement": "cytokine changes", "setting": "solid tumor; DL1A, DL2A, or DL3A (0.05-0.45 μg/kg)", "value": "No meaningful cytokine changes"}, {"measurement": "induction of IFN-a and IP-10", "setting": "solid tumor; DL5 onwards, substantially starting at DL6, data update October 2022", "value": "increased"}, {"measurement": "IL-6 induction", "setting": "solid tumor; DL6A", "value": "some increase"}, {"measurement": "IP-10 level relative to assay range", "setting": "solid tumor; DL6A", "value": "upper limit of detection of the assay was reached"}, {"measurement": "induction of IFNa, IP-10, and other mode-of-action relevant cytokines", "setting": "solid tumor; DL6A (4.8 μg/kg)", "value": "substantial induction"}, {"measurement": "tumor response (RECIST 1.1), third patient", "setting": "solid tumor; DL7, trial Day 251, still on treatment", "value": "partial response"}, {"measurement": "dose limiting toxicity (DLT), or related grade 4-5 AEs", "setting": "solid tumor; Part 1A", "value": "no"}, {"measurement": "TEAEs related to BNT411 monotherapy: Anaemia, Grade 4", "setting": "solid tumor; [1]", "value": "2 (13%)"}, {"measurement": "TEAEs related to BNT411 monotherapy: Blood bilirubin increased, Grade 4", "setting": "solid tumor; [1]", "value": "1 (7%)"}, {"measurement": "TEAEs related to BNT411 monotherapy: Chills, Grade 4", "setting": "solid tumor; [1]", "value": "2 (13%)"}, {"measurement": "TEAEs related to BNT411 monotherapy: Diarrhoea, Grade 4", "setting": "solid tumor; [1]", "value": "1 (7%)"}, {"measurement": "TEAEs related to BNT411 monotherapy: Fatigue, Grade 4", "setting": "solid tumor; [1]", "value": "1 (7%)"}, {"measurement": "TEAEs related to BNT411 monotherapy: Headache, Grade 4", "setting": "solid tumor; [1]", "value": "1 (7%)"}, {"measurement": "TEAEs related to BNT411 monotherapy: Hyperbilirubinaemia, Grade 4", "setting": "solid tumor; [1]", "value": "1 (7%)"}, {"measurement": "TEAEs related to BNT411 monotherapy: Hypotension, Grade 4", "setting": "solid tumor; [1]", "value": "1 (7%)"}, {"measurement": "TEAEs related to BNT411 monotherapy: Illness, Grade 4", "setting": "solid tumor; [1]", "value": "1 (7%)"}, {"measurement": "TEAEs related to BNT411 monotherapy: Infusion related reaction, Grade 4", "setting": "solid tumor; [1]", "value": "1 (7%)"}, {"measurement": "TEAEs related to BNT411 monotherapy: Nausea, Grade 4", "setting": "solid tumor; [1]", "value": "1 (7%)"}, {"measurement": "TEAEs related to BNT411 monotherapy: Neutropenia, Grade 4", "setting": "solid tumor; [1]", "value": "1 (7%)"}, {"measurement": "TEAEs related to BNT411 monotherapy: Pruritus, Grade 4", "setting": "solid tumor; [1]", "value": "1 (7%)"}, {"measurement": "TEAEs related to BNT411 monotherapy: Pyrexia, Grade 4", "setting": "solid tumor; [1]", "value": "3 (20%)"}, {"measurement": "TEAEs related to BNT411 monotherapy: Total number of patients with TEAEs, Grade 4", "setting": "solid tumor; [1]", "value": "7 (47%)"}, {"measurement": "TEAEs related to BNT411 monotherapy: Anaemia, Grade 1", "setting": "solid tumor; [2]", "value": 1}, {"measurement": "TEAEs related to BNT411 monotherapy: Anaemia, Grade 3", "setting": "solid tumor; [2]", "value": 1}, {"measurement": "TEAEs related to BNT411 monotherapy: Blood bilirubin increased, Grade 1", "setting": "solid tumor; [2]", "value": 1}, {"measurement": "TEAEs related to BNT411 monotherapy: Chills, Grade 1", "setting": "solid tumor; [2]", "value": 2}, {"measurement": "TEAEs related to BNT411 monotherapy: Diarrhoea, Grade 2", "setting": "solid tumor; [2]", "value": 1}, {"measurement": "TEAEs related to BNT411 monotherapy: Fatigue, Grade 2", "setting": "solid tumor; [2]", "value": 1}, {"measurement": "TEAEs related to BNT411 monotherapy: Headache, Grade 1", "setting": "solid tumor; [2]", "value": 1}, {"measurement": "TEAEs related to BNT411 monotherapy: Hyperbilirubinaemia, Grade 1", "setting": "solid tumor; [2]", "value": 1}, {"measurement": "TEAEs related to BNT411 monotherapy: Hypotension, Grade 1", "setting": "solid tumor; [2]", "value": 1}, {"measurement": "TEAEs related to BNT411 monotherapy: Illness, Grade 1", "setting": "solid tumor; [2]", "value": 1}, {"measurement": "TEAEs related to BNT411 monotherapy: Infusion related reaction, Grade 2", "setting": "solid tumor; [2]", "value": 1}, {"measurement": "TEAEs related to BNT411 monotherapy: Nausea, Grade 1", "setting": "solid tumor; [2]", "value": 1}, {"measurement": "TEAEs related to BNT411 monotherapy: Neutropenia, Grade 1", "setting": "solid tumor; [2]", "value": 1}, {"measurement": "TEAEs related to BNT411 monotherapy: Pruritus, Grade 1", "setting": "solid tumor; [2]", "value": 1}, {"measurement": "TEAEs related to BNT411 monotherapy: Pyrexia, Grade 1", "setting": "solid tumor; [2]", "value": 1}, {"measurement": "TEAEs related to BNT411 monotherapy: Pyrexia, Grade 2", "setting": "solid tumor; [2]", "value": 2}, {"measurement": "safety profile", "setting": "solid tumor; all doses tested as of Aug. 26, 2021 (up to DL6)", "value": "acceptable safety profile"}, {"measurement": "time of IFNa and IL-6 peak after treatment", "setting": "solid tumor; day 1, treatment cycle 1", "value": "4 to 8", "unit": "h"}, {"measurement": "time of IP-10 and TNFa peak after treatment", "setting": "solid tumor; day 1, treatment cycle 1", "value": "2.5 to 8", "unit": "h"}, {"measurement": "AEs related to BNT411 monotherapy: chills, share of patients", "setting": "solid tumor; grade 1, Part 1A DL1 and DL6", "value": 13, "unit": "%"}, {"measurement": "AEs related to BNT411 monotherapy: pyrexia, share of patients", "setting": "solid tumor; grades 1 and 2, Part 1A DLs 1*, 2, and 6", "value": 20, "unit": "%"}, {"measurement": "AEs related to BNT411 monotherapy: anaemia, share of patients", "setting": "solid tumor; grades 1 and 3, Part 1A DL4 and DL5", "value": 13, "unit": "%"}, {"measurement": "tumor response (RECIST 1.1), second patient", "setting": "solid tumor; intermediate dose level between DL6 and DL7, as of Day 420", "value": "stable disease"}, {"measurement": "change in sum of target lesion diameters compared with baseline, second patient", "setting": "solid tumor; intermediate dose level between DL6 and DL7, trial Day 86", "value": "−26.2", "unit": "%"}, {"measurement": "cytokine release", "setting": "solid tumor; ten patients, DL4A, DL5A, DL6A", "value": "dose-dependent cytokine release"}, {"measurement": "serious adverse events with a possible causal relationship to BNT411 monotherapy", "setting": "solid tumor; two cases of infusion-related reaction, grades 1 and 2, same patient, Part 1A DL6", "value": "Two"}, {"measurement": "tumor response (RECIST 1.1), patient started at DL4, increased to DL5 (C8D1) and DL6 (C12D1)", "setting": "solid tumor; until trial Day 449, cutoff Oct. 13, 2022", "value": "stable disease"}, {"measurement": "overall safety profile", "setting": "solid tumor; up to DL6, data update October 2022", "value": "acceptable overall safety profile"}, {"measurement": "TNFa induction levels", "setting": "solid tumor; up to DL6A", "value": "remained unchanged"}]}
